Laboratory results from PMC5371851 (Toxins, 2017).

How the values were obtained:
[1] = tested on: human gastric epithelial (GES-1) cells
porcine IPEC-1 = conditions: pig intestine cell (IPEC-1); cited from earlier work

| Structure (SMILES) | Dm (median-effect dose, IC50 value) [1] | EC30 (effective concentration of 30% inhibiting cell viability rate) [1] | EC70 (effective concentration of 70% inhibiting cell viability rate) [1] | m (slope of median-effect curves) [1] | toxicity relative to DON (porcine IPEC-1) | relative potency in reducing cell viability (fold less) [1] | effect on cell viability ([1]; human) | toxicity to GES-1 cells [1] |
| --- | --- | --- | --- | --- | --- | --- | --- | --- |
| CC1=C[C@H]2O[C@@H]3[C@H](O)[C@@H](O)[C@](C)([C@@]2(CO)[C@H](O)C1=O)[C@]31CO1 [NIV, Nivalenol] | 0.58 ppm | 0.08 | 4.36 | 0.42 |  |  |  |  |
| CC(=O)O[C@@H]1C[C@]2(C)[C@@]3(CO)[C@H](O)C(=O)C(C)=C[C@H]3O[C@H]1[C@@]21CO1 [3-ADON, 3-acetyldeoxynivalenol] |  |  |  |  | less toxicity than DON | ten-fold | neither D3G nor 3-ADON decreased any cell viability |  |
| CC(=O)OC[C@]12[C@H](O)C(=O)C(C)=C[C@H]1O[C@@H]1[C@H](O)C[C@@]2(C)[C@]12CO2 [15-ADON, 15-acetyldeoxynivalenol] | 4.77 ppm | 1.13 | 20.05 | 0.59 |  |  |  |  |
| CC1=C[C@H]2O[C@@H]3[C@H](O[C@@H]4O[C@H](CO)[C@@H](O)[C@H](O)[C@H]4O)C[C@](C)([C@@]2(CO)[C@H](O)C1=O)[C@]31CO1 [D3G, deoxynivalenol-3-glucoside] |  |  |  |  |  |  |  | no toxicity |
| CC(=O)O[C@@H]1[C@@H](O)[C@H]2O[C@@H]3C=C(C)C(=O)[C@@H](O)[C@]3(CO)[C@]1(C)[C@]21CO1 [FX, Fusarenon-X] | 0.85 ppm | 0.15 | 4.97 | 0.48 |  |  |  |  |
| CC1=C[C@H]2O[C@@H]3[C@H](O)C[C@](C)([C@@]2(CO)[C@H](O)C1=O)[C@]31CO1 [DON, deoxynivalenol] | 2.99 ppm | 0.75 | 11.99 | 0.61 |  |  |  |  |
